According to patent US20210162091A1, “WASH-DURABLE, FLUID ABSORBENT SUBSTRATE WITH ANTIMICROBIAL PROPERTIES AND/OR IMPROVED WASHABILITY, AND HYGIENE PRODUCT SUCH AS REUSABLE SANITARY NAPKIN” (Livinguard AG, priority 2015, published 2021):

How the values were obtained:
[1] = tested on: fungi (Candida albicans and Aspergillus niger); test: Antimicrobial performance against fungi (AATCC 100:2012, summary in words); format: cell-based; details: single agent, 6% o.w.f. chemical
Description: (§1) All microbiological tests were performed with cultures of the bacteria Escherichia coli American Type Culture Collection (ATCC) 25922, Staphylococcus aureus ATCC 6538, Pseudomonas aeruginosa ATCC 15442, Salmonella enterica ATCC 10708, and of the fungi Candida albicans ATCC 10231, and Aspergillus niger ATCC 16404.

[2] = tested on: bacteria (Escherichia coli, Staphylococcus aureus, Pseudomonas aeruginosa, and Salmonella enterica); test: Antimicrobial performance against bacteria (AATCC 100:2012, summary in words); format: cell-based; details: single agent, 6% o.w.f. chemical
Description: as §1

CCCC1COC(Cn2cncn2)(c2ccc(Cl)cc2Cl)O1 (stereo not drawn) [propiconazole, reference compound]
Efficiency for killing fungi ([1]; adhered to cotton): efficient for killing fungi | Efficiency for killing fungi ([1]; adhered to polyester): works well against fungi | Efficiency for killing bacteria ([2]; adhered to cotton): not efficient for killing bacteria | Efficiency for killing bacteria ([2]; adhered to polyester): about as efficient against bacteria as silver and quaternary ammonium organosilane

polyhexamethylene biguanide [PHMB]
Efficiency for killing fungi ([1]; adhered to cotton): perform poorly | Efficiency for killing bacteria ([2]; adhered to cotton): about equally efficient for killing bacteria

silver
Efficiency for killing fungi ([1]; adhered to cotton): perform poorly | Efficiency for killing fungi ([1]; adhered to polyester): not efficient for killing fungi | Efficiency for killing bacteria ([2]; adhered to cotton): about equally efficient for killing bacteria | Efficiency for killing bacteria ([2]; adhered to polyester): about equally efficient in killing bacteria

CCCCCCCCCCCCCCCCCC[N+](C)(C)CCC[Si](OC)(OC)OC [dimethyloctadecyl[3-(trimethoxysilyl)propyl] ammonium chloride]
Efficiency for killing fungi ([1]; adhered to polyester): not efficient for killing fungi | Efficiency for killing bacteria ([2]; adhered to polyester): about equally efficient in killing bacteria
